Measurements: ChEMBL document CHEMBL1136813, “Bivalent biogenic amine reuptake inhibitors” (Bioorg Med Chem Lett, 2003)

Columns and labels:
[1] = target: T1, Sodium-dependent dopamine transporter (Homo sapiens, UniProt Q01959); assay: Compound was tested for inhibition of [125I]RTI-55 binding to dopamine transporter in HEK cells; type: cell-based, HEK293
[2] = target: T2, Sodium-dependent noradrenaline transporter (Homo sapiens, UniProt P23975); assay: Compound was tested for inhibition of [125I]-RTI-55 binding to norepinephrine transporter HEK cells; type: cell-based, HEK293
T2 sequence (P23975 whole entry): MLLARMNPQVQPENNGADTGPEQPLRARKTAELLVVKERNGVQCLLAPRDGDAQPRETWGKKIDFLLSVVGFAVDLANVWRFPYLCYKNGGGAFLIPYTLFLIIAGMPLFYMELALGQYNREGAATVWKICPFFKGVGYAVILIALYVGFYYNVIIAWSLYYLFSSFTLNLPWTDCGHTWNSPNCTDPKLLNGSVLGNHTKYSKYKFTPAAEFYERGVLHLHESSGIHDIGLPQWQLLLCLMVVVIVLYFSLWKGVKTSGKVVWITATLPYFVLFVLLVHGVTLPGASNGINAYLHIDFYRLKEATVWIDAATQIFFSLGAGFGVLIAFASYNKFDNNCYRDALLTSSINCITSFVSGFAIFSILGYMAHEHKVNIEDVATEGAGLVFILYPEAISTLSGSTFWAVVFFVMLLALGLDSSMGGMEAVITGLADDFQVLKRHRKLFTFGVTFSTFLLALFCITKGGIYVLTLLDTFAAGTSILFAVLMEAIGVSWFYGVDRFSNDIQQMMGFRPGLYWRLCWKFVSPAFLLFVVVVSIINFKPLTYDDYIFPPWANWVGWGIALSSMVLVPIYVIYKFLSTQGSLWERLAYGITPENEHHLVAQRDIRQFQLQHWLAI

[3] = target: T3, Sodium-dependent serotonin transporter (Homo sapiens, UniProt P31645); assay: Compound was tested for inhibition of [125I]RTI-55 binding to Serotonin transporter in HEK cells; type: cell-based, HEK293
Target sequence in this assay (P31645 whole entry): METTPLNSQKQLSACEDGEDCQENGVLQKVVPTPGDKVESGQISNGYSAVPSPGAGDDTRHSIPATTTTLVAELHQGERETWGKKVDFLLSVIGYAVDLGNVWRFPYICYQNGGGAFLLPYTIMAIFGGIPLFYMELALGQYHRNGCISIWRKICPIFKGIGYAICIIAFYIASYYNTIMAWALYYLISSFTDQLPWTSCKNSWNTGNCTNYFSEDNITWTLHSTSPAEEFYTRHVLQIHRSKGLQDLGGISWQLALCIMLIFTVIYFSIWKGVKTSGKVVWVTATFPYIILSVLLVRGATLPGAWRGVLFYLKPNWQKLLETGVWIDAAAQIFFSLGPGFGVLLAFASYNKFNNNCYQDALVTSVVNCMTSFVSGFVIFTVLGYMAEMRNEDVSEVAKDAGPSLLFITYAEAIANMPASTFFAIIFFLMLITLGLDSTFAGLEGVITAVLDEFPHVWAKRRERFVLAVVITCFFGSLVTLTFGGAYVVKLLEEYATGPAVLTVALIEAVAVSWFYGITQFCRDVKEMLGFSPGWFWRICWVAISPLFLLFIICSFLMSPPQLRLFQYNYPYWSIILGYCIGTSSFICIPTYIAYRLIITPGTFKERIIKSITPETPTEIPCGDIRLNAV

[4] = target: T3, Sodium-dependent serotonin transporter; assay: Compound was tested for inhibition of [3H]5-HT binding to Serotonin transporter in HEK cells; type: cell-based, HEK293
Target sequence in this assay (P31645 whole entry): as above

[5] = target: T3, Sodium-dependent serotonin transporter; assay: Ratio of uptake inhibition to binding affinity to human SERT (IC50/Ki)
Target sequence in this assay (P31645 whole entry, looked up): as the sequence (P31645 whole entry) above

[6] = target: T2, Sodium-dependent noradrenaline transporter; assay: Compound was tested for inhibition of [3H]NE binding to norepinephrine transporter HEK cells; type: cell-based, HEK293
[7] = target: T1, Sodium-dependent dopamine transporter; assay: Ratio of uptake inhibition to binding affinity to human DAT (IC50/Ki)
[8] = target: T1, Sodium-dependent dopamine transporter; assay: Compound was tested for inhibition of [3H]DA binding to dopamine (DAT) transporter in HEK cells; type: cell-based, HEK293
[9] = target: T2, Sodium-dependent noradrenaline transporter; assay: Ratio of uptake inhibition to binding affinity to human NET (IC50/Ki)

T1 sequence (Q01959 whole entry): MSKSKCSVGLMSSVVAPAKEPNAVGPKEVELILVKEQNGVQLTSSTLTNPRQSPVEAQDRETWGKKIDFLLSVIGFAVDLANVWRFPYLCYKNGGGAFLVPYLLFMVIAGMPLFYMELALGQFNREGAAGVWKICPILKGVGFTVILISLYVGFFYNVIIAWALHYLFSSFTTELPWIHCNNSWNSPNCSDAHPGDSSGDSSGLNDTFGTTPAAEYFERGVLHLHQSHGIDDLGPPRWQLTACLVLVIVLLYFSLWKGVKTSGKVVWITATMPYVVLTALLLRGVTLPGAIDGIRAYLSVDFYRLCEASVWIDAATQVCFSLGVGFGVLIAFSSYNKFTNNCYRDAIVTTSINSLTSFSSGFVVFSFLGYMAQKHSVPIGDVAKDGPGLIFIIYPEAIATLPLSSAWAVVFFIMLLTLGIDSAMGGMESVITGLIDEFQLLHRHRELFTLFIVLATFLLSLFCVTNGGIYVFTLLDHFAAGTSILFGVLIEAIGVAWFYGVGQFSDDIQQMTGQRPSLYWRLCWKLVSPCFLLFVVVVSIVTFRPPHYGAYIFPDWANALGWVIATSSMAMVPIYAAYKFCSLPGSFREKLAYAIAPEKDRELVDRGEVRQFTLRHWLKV

| Structure (SMILES) | Ki [1] | Ki [2] | Ki [3] | IC50 [4] | Ratio [5] | IC50 [6] | Ratio [7] | IC50 [8] | Ratio [9] |
| --- | --- | --- | --- | --- | --- | --- | --- | --- | --- |
| CN1C2CCC1C(C(=O)NCCCCNC(=O)C1C(c3ccc(Cl)cc3)CC3CCC1N3C)C(c1ccc(Cl)cc1)C2 (configuration not stated) | 21.7 nM | 2070 nM | 3140 nM | 176 nM | 0.06 | 2260 nM | 76.8 | 1670 nM | 1.09 |
| CN1C2CCC1C(C(=O)NCCCCCCCCNC(=O)C1C(c3ccc(Cl)cc3)CC3CCC1N3C)C(c1ccc(Cl)cc1)C2 (configuration not stated) | 6.7 nM | 830 nM | 7.9 nM | 99 nM | 12.5 | 487 nM | 130 | 871 nM |  |
| CN1C2CCC1C(C(=O)NCCCCCCNC(=O)C1C(c3ccc(Cl)cc3)CC3CCC1N3C)C(c1ccc(Cl)cc1)C2 (configuration not stated) | 18.4 nM | 330 nM | 102 nM | 225 nM | 2.2 | 1850 nM | 76.3 | 1400 nM | 5.59 |
| CN1C2CCC1C(C(=O)NCCCNC(=O)C1C(c3ccc(Cl)cc3)CC3CCC1N3C)C(c1ccc(Cl)cc1)C2 (configuration not stated) | 65.1 nM | 2970 nM | 357 nM | 441 nM | 1.17 | 266 nM | 0.8 | 52.2 nM | 0.09 |
| COC(=O)C1C(c2ccc(Cl)cc2)CC2CCC1N2C (configuration not stated) | 1.1 nM |  |  |  |  |  |  | 1.7 nM |  |
